Read-outs that look alike come from different tables or passages of the source.
Tests used:
[1] = test system: Bcl2-transfected MM.1S cells; experiment: MTT viability of Bcl2-transfected MM.1S cells
Description: Bcl2 confers resistance to conventional therapies in cancer cells, including MM. […] Bcl2 can modestly attenuate Bortezomib-induced apoptosis. Thus, whether ectopic expression of Bcl2 in MM.1S cells affects responsiveness to the compound of formula (II) (X=Cl) was evaluated. MM.1S cells were stably transfected with Bcl2 construct and analyzed for alterations in cell viability using an MTT assay. […] Results are mean±SD of three independent experiments.
During apoptosis Bax neutralizes the antiapoptotic function of Bcl-2, thereby facilitating the cyto-c release and caspase-9 activation. Bcl-2 also confers drug resistance in cancer cells, including MM, and provides partial protection against Bortezomib-induced killing. Therefore, whether ectopic expression of Bcl-2 in MM.1S cells affects the ability of the compound of formula (II) or Bortezomib to trigger cytotoxicity and postmitochondrial apoptotic signaling in MM cells was evaluated.

[2] = test system: purified (CD138-positive) patient MM cells; experiment: DNA fragmentation apoptosis assay on purified patient MM cells
RPMI 8226 MM cells = format: in vivo, beige-nude-xid (BNX) mice
MM.1S MM cells = experiment: VEGF-induced migration of MM cells; format: cell-based, human; conditions: 7 or 10 nM; FIG. 8
Description: VEGF is elevated in the bone marrow microenvironment and triggers migration, growth, and angiogenesis in MM cells. See Podar, K., Tai, Y. T., Lin, B. K., Narsimhan, R. P., Sattler, M., Kijima, T., Salgia, R., Gupta, D., Chauhan, D. & Anderson, K. C. […] Thus, whether the compound of formula (II) (X=Cl) alters VEGF-induced migration of MM cells was evaluated. VEGF induced migration was examined in the presence or absence of the compound (7 or 10 nM). Cell migration was assayed as described previously in Podar, K., Tai, Y. T., Davies, F. E., Lentzsch, S., Sattler, M., Hideshima, T., Lin, B. K., Gupta, D., Shima, Y., Chauhan, D., Mitsiades, C., Raje, N., Richardson, P. & Anderson, K. C. […] These findings indicate that the compound may negatively regulate both homing of MM cells to the bone marrow and their egress into the peripheral blood.

[3] = test system: 20S proteasome in white blood cell (WBC) lysates; experiment: Ex vivo 20S proteasome activity in whole blood cells in mice
Description: To directly determine whether the compound of formula (II) (X=Cl) inhibits proteasome activity in vivo, the compound of formula (II) (X=Cl) was dissolved in 100% DMSO and serially diluted with 5% Solutol (Solutol® HS15; polyethylene glycol 660 12-hydroxystearate, BASF, Shreveport, La.) yielding a final concentration of 2% DMSO. The vehicle control consisted of 2% DMSO and 98% (5% Solutol® HS15). Male Swiss-Webster mice (five per group, 20-25 grams in weight) were treated at Bolder BioPATH, Inc. (Boulder, Colo.) with various concentrations of the compound either intravenously or orally at a volume of 10 mL/kg. One group of animals was untreated to establish a baseline of proteasome activity. Ninety minutes after administration of the compound, the animals were anesthetized and blood withdrawn by cardiac puncture. Packed whole blood cells were collected by centrifugation, washed with PBS, and frozen on dry ice for determination of ex vivo proteasome activity. Chymotrypsin-like activity of the 20S proteasome in white blood cell (WBC) lysates was determined using the peptide substrate suc-LLVY-AMC. Relative Fluoresence Units (RFU) were normalized using the protein concentrations of the cell lysates. The 20S proteasome activity of the individual mice is shown in FIG. 2 with the horizontal bar representing the average activity. […]

[4] = molecular target: T1, human erythrocyte-derived 20S proteasome (Homo sapiens, UniProt P28072+P28074+Q99436); experiment: In vitro 20S proteasome activity assay; format: biochemical; conditions: Suc-LLVY-AMC, Z-LLE-AMC, Boc-LRR-AMC substrates; FIG. 1
T1 construct: Purified human erythrocyte-derived 20S proteasome were obtained from Biomol; purchased Biomol, Plymouth Meeting, Pa; host or cells: purified from human erythrocytes
Description: The chymotrypsin-like activity of the 20S proteasome was measured as described in Stein, R. L., Melandri, F. & Dick, L. (1996) Biochemistry 35, 3899-908 and Lightcap, E. S., McCormack, T. A., Pien, C. […] Purified human erythrocyte-derived 20S proteasome were obtained from Biomol, Plymouth Meeting, Pa. The chymotrypsin-like, caspase-like and trypsin-like activity activities of the 20S proteasome were determined using Suc-LLVY-AMC, Z-LLE-AMC (Boston Biochem, Cambridge, Mass.) and Boc-LRR-AMC (Bachem Bioscience, King of Prussia, Pa.) as peptide substrates, respectively. Fluorescence of the cleaved peptide substrate was measured using a Fluoroskan Ascent 96-well microplate reader (Thermo Electron, Waltham, Mass.). The EC50 values were calculated by Prism (GraphPad Software) using a sigmoidal dose-response, variable slope model. The EC50 values were defined as the drug concentration at which 50% of the maximal relative fluorescence is inhibited.

[5] = molecular target: proteasome β-5, β-2, β-1 subunits in MM.1S MM cells (Homo sapiens, UniProt P28072+P28074+Q99436); experiment: Competition experiment with AdaY(125I)Ahx3L3VS in MM.1S cells; format: cell-based; conditions: 7 nM
Description: Determination of whether the compound of formula II (X=Cl) affects the proteasome activity in multiple myeloma cells in vitro was made using a competition experiment with AdaY^125Iahx3L3VS. In this assay, sites that are not targeted by the compound of formula II (X=Cl) are labeled by AdaY(^125I)Ahx3L3VS and visualized by autoradiography, while sites that are targeted by the compound of formula II (X=Cl) can not be seen on the autoradiogram. […] 60 μg of protein extracts was incubated for 2 h with the iodinated proteasome inhibitor AdaY^125Iahx3L3VS at 37° C. Proteins were then denatured by boiling in reducing sample buffer and separated on a 12.5% SDS-PAGE gel, followed by autoradiography.

[6] = 0.25 or 0.5 mg/kg orally twice a week

Question: Which “increased survival of Bcl-2 transfectants” value ([1]; Bcl-2- versus vector-transfected, FIG. 14A) does the source give for CC12OC(=O)C1(C(O)C1C=CCCC1)NC(=O)C2CCCl (stereo not drawn) [compound of formula (II) (X=Cl)] here?
Answer: The value was 11%.

Question: What about the viability ([1]; Bcl-2-transfected cells, FIG. 14A) of the same compound?
Answer: The viability was 50%±2.6.

Question: And the “less cell death in Bcl2-transfected cells compared to empty vector-transfected MM.1S cells” value ([1]; FIG. 9)?
Answer: Its value is 15±1.1%.

Question: What about the “effect of Bcl-2 overexpression on induced caspase-9 cleavage” value ([1]; FIG. 14B) of the same compound?
Answer: The value was “minimally affected”.

Question: And the “cell viability of Bcl2-transfected MM.1S cells” value ([1]; dose-dependent, FIG. 9)?
Answer: The value was “significantly decreases cell viability”.

Question: And the viability ([1]; vector-transfected cells, FIG. 14A)?
Answer: Its viability is 39%±1.5.

Question: What about the “apoptosis by DNA fragmentation assay” value ([2]; 10 nM, 24 h, nine relapsed MM patients, FIG. 5B) of the same compound?
Answer: The value was “significant apoptosis”.

Question: What about the increase in apoptosis ([2]; CD138+ cells of two patients, 20 nM, 24 h, FIG. 6) of the same compound?
Answer: The increase in apoptosis was 10-12 fold.

Question: What about the “IC50 for MM cells” value ([2]; stated in words) of the same compound?
Answer: The value was “within the nanomolar concentration”.

Question: What about the MM tumor growth (RPMI 8226 MM cells; [6]) of the same compound?
Answer: The MM tumor growth was “significantly inhibits MM tumor growth”.

Question: And the survival (RPMI 8226 MM cells; [6])?
Answer: Its survival is “prolongs survival”.

Question: What about the neurological behavioral changes (RPMI 8226 MM cells; after 12 weeks of treatment, oral) of the same compound?
Answer: Its neurological behavioral changes is “no neurological behavioral changes were observed”.

Question: And the “treated mice with no recurrence of tumor” value (RPMI 8226 MM cells; day 300, oral, FIG. 10C)?
Answer: The value was 57%.

Question: What about the tumor progression (RPMI 8226 MM cells; i.v. twice weekly (compound 0.15 mg/kg; Bortezomib 1.0 mg/kg), p<0.01) of the same compound?
Answer: The tumor progression was “significantly reduced the tumor progression”.

Question: What about the survival (RPMI 8226 MM cells; i.v. twice weekly (compound 0.15 mg/kg; Bortezomib 1.0 mg/kg), p=0.0137) of the same compound?
Answer: Its survival is “prolonged survival”.

Question: What about the “tolerability and body weight” value (RPMI 8226 MM cells; oral 0.25 or 0.5 mg/kg, FIG. 10D) of the same compound?
Answer: The value was “well tolerated by mice, without evidence of weight loss”.

Question: What about the “treated mice with complete regression of tumors” value (RPMI 8226 MM cells; oral, twice a week) of the same compound?
Answer: Its value is 70%.

Question: And the “histologic analysis of the inoculation sites” value (RPMI 8226 MM cells; versus vehicle, FIG. 10E)?
Answer: Its value is “disappearance of plasma cells”.

Question: What about the VEGF-induced migration (MM.1S MM cells) of the same compound?
Answer: The VEGF-induced migration was “decreases VEGF-induced migration”.

Question: And the oral activity ([3]; oral administration, mice)?
Answer: The oral activity was “orally active”.

Question: What about the “Chymotrypsin-like activity of the 20S proteasome in WBC lysates” value ([3]; single i.v. or oral administration, 90 minutes after administration, FIG. 2) of the same compound?
Answer: Its value is “inhibits chymotrypsin-like activity of 20S proteasomes in white blood cells in a dose-dependent manner”.

Question: And the “inhibition of chymotrypsin-like, caspase-like and trypsin-like activities of the 20S proteasome” value [4]?
Answer: The value was “inhibits all three proteasome activities”.

Question: And the “labeling of β-5 subunit by AdaY(125I)Ahx3L3VS” value ([5]; 30 mins to 6 h, FIG. 3)?
Answer: Its value is “markedly less labeled”.

Question: What about the “labeling of β-2 and β-1 subunits by AdaY(125I)Ahx3L3VS” value ([5]; 6 h, data not shown) of the same compound?
Answer: Its value is “decreased the labeling of the β-2 subunits (tryptic-activity) and the β-1 subunits (caspase-like activity)”.

— patent publication US10610517B2, “Compositions and methods for treating neoplastic diseases” (Celgene International II Sàrl, priority 2004, dated 2020)
